How the values were obtained:
[1] = target: T1, SOS-mediated nucleotide exchange on Ras (Homo sapiens, UniProt Q07889); experiment: SOS-mediated nucleotide exchange on Ras (BODIPY-GDP fluorescence); type: biochemical; conditions: Ras loaded with BODIPY-GDP, GTP and SOS added; EC50 from derived exchange rates
T1 sequence (Q07889 1-1333): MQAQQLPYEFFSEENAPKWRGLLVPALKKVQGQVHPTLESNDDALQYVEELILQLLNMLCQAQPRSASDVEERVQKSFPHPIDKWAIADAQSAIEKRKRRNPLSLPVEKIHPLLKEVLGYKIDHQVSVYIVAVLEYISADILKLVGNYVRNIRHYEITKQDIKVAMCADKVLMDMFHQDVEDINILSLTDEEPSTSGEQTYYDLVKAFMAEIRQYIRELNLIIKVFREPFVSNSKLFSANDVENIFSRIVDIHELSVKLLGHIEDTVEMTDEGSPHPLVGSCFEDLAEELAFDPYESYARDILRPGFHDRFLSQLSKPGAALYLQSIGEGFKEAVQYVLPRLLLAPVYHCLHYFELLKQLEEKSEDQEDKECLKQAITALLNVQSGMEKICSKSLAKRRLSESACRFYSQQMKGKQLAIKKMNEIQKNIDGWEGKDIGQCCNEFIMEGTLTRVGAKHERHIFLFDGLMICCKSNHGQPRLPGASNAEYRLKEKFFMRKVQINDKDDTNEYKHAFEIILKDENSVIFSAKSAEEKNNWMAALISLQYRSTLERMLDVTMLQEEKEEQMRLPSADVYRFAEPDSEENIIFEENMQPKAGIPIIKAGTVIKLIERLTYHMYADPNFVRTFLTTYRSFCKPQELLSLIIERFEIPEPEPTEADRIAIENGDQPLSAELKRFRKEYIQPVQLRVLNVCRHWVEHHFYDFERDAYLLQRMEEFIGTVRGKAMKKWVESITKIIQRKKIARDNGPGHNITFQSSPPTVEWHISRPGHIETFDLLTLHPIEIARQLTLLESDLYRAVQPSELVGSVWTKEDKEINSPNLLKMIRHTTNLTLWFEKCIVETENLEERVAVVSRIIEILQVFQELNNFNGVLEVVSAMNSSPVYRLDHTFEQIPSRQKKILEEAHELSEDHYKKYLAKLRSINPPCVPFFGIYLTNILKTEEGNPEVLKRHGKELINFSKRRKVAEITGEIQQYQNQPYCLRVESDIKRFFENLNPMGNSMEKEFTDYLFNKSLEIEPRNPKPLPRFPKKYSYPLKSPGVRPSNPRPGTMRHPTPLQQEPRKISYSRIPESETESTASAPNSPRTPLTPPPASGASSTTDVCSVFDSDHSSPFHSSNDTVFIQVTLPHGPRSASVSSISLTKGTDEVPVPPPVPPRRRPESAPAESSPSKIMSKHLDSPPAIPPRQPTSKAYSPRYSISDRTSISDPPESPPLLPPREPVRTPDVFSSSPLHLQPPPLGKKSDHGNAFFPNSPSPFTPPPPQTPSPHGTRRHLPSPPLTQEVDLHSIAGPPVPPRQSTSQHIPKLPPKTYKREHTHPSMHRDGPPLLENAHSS
Outline: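 Compound, then GTP and SOS, were added to buffered Ras preloaded with BODIPY-GDP, and the fluorescence change from labeled GDP being exchanged for GTP was followed over time. Rates came from single-exponential fits, and EC50 from a four-parameter fit of mean rate against compound concentration.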

Son of Sevenless (SOS) = target: T2, Son of Sevenless (SOS) (Homo sapiens, UniProt Q07889); experiment: Binding to SOS, fluorescence polarization anisotropy (FPA) displacement of FITC-conjugated probe; conditions: binding affinity calculated from IC50 of FITC-probe displacement, read-out: Binding affinities (binding affinity to SOS)
T2 sequence (Q07889 564-1049 limits assumed): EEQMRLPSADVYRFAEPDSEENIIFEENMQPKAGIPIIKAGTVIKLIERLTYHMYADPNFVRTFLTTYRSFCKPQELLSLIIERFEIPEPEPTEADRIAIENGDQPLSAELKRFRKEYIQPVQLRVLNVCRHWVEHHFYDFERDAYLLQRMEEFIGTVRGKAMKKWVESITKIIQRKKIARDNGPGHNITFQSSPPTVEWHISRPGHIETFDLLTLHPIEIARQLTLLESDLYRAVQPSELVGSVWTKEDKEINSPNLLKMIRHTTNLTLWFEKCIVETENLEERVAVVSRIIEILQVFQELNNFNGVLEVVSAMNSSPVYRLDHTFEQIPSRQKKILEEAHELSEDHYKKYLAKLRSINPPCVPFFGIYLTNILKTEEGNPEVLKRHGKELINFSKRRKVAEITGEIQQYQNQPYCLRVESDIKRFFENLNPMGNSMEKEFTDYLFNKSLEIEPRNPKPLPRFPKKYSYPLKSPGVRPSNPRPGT
Outline: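 FITC-labelled probe incubated with SOS in buffer; displacement by test compound across a dose range read as fluorescence anisotropy change. IC50 from four-parameter variable-slope fit, binding affinity calculated from IC50.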

[2] = test system: H727 lung cancer cell lines, which contain a G12V K-Ras mutation; experiment: Inhibition of cancer cell proliferation (CellTiter-Glo, 3 days); type: cell-based; conditions: Homo sapiens, NCI-H727, 72 h, H727 cells, 3 days at 37° C., normalized to DMSO control, read-out: Cell proliferation activity (H727 cancer cell line proliferation IC50)
Procedure: C. Inhibition of Cancer Cell Proliferation
Compounds of the present invention were measured for their ability to kill H727 lung cancer cell lines, which contain a G12V K-Ras mutation. Cell proliferation experiments were conducted in 96-well plates. Cells were plated at 1000 cells/well, incubated overnight, followed by treatment with a dose range of compound for 3 days at 37° C. Cell proliferation was assessed using a CellTiter-Glo assay (Promega) according to the manufacturer's protocol. Data were normalized to DMSO control. IC50 values were determined using a four-parameter dose-response (variable slope) equation. These assays are performed in a manner analogous to the assay disclosed in: Burns, M. C.; Sun, Q.; Daniels, R. N.; Camper, D. V.; Kennedy, J. P.; Phan, J.; Olejniczak, E. O.; Lee, T.; Waterson, A. G.; Rossanese, O. W.; Fesik, S. W. “Approach for targeting Ras with small molecules that activate SOS-mediated nucleotide exchange” Proc. Natl. Acad. Sci. 2014; 11(9): 3401-3406. PMCID: PMC3948241.

| Structure (SMILES) | EC50 [1] [µM] | Ki (Son of Sevenless (SOS)) [µM] | IC50 [2] [µM] |
| --- | --- | --- | --- |
| CCC(CC)CNc1nc(Nc2ccc(F)c(Cl)c2)nc2c(N3CCNCC3)cccc12 [Example 102, N^2-(3-chloro-4-fluorophenyl)-N^4-(2-ethylbutyl)-8-(piperazin-1-yl)quinazoline-2,4-diamine] | 5 to 30 | > 5 | 1 to 5 |
| CC1CCC(CNc2nc(N[C@H](C)C3CC3)c3cccc(C4=CCNCC4)c3n2)CC1 (stereo partly drawn) [Example 104, (R)—N^4-(1-cyclopropylethyl)-N^2-((4-methylcyclohexyl)methyl)-8-(1,2,3,6-tetrahydropyridin-4-yl)quinazoline-2,4-diamine] | 1 to 5 | 1 to 5 | < 1 |
